# Assay results from paper PMC11192711, “Automated radiosynthesis and preclinical evaluation of two new PSMA-617 derivatives radiolabelled via [^18F]AlF^2+ method” (EJNMMI Radiopharmacy and Chemistry, 2024).
# Tested on: Gli36ΔEGFR tumours-bearing nude mice
# Assay: PET/CT in vivo biodistribution and tumour uptake in orthotopic Gli36ΔEGFR glioma model
# Conditions: n = 3; for Bone (SUV mean) / Brain (SUV mean) / Colon (SUV mean) / Gall bladder (SUV mean) / Heart (SUV mean) / Kidney (SUV mean) / Liver (SUV mean) / Lung (SUV mean) / Muscle (SUV mean) / Salivary gland (SUV mean) / Small instestine (SUV mean): Gli36ΔEGFR female nude mice, i.v., PET/CT; for tumour-to-contralateral healthy brain ratio (tumour SUV max/contralateral SUV mean): Gli36ΔEGFR orthotopic glioma, nude mice
# Procedure: Subsequently, we evaluated the uptake of [^18F]F-PSMA-617-NODA ([^18F]1) and [^18F]F-PSMA-617-RESCA ([^18F]2) in an orthotopic glioma model obtained with Gli36ΔEGFR cells in female nude mice. Gli36ΔEGFR tumours-bearing nude mice (n = 3) were injected i.v. with either [^18F]F-PSMA-617-NODA or [^18F]F-PSMA-617-RESCA (~ 3.8 MBq/mouse, ~ 50 pmol for [^18F]1 and ~ 170 pmol [^18F]2). Radiotracer uptake was assessed after 10, 60 and 120 min post injection by whole-body PET/CT acquisitions. Also in nude female mice, a rapid clearance of [^18F]1 in all organs and the same kinetic observed in NSG male mice (Additional file 1: S71A and B) were confirmed. […] It is interesting to note that the uptake of [^18F]1 in kidneys decreased over time in both models (Additional file 1: S71A and B), while the uptake of [^18F]F-PSMA-1007 in NSG model and [^18F]2 in nude female mice model increased (Additional file 1: S71C and D).
# Total body biodistribution of [^18F]F-PSMA-1007, [^18F]F-PSMA-617-NODA and [^18F]F-PSMA-617-RESCA was evaluated in vivo using imaging PET/CT. [^18F]F-PSMA-617-NODA uptake was compared to that of the [^18F]F-PSMA-1007 in a PSMA positive prostate tumour xenograft model (LNCaP). [^18F]F-PSMA-617-NODA and [^18F]F-PSMA-617-RESCA uptake were also evaluated using an orthotopic glioma model (Gli36ΔEGFR).
# 5 × 10^5 Gli36ΔEGFR cells were injected in the right striatum of seven to eight weeks old female nude mice (Envigo RMS s.r.l., Italy) as previously described (Valtorta et al. [2021]). Ten days after mice underwent a T2-weighted Magnetic Resonance Imaging (MRI) using a 7 T small animal magnetic resonance scanner (Bruker, BioSpec 70/30 USR, Paravision 5.1, Germany) to confirm the growth of the tumour. Then, the same mice underwent in vivo biodistribution of [^18F]F-PSMA-617-NODA and [^18F]F-PSMA-617-RESCA, on successive but non-consecutive days, using PET/CT.
# Mice were injected into a tail vein with 3.8 ± 0.1 MBq of [^18F]F-PSMA-1007, 4.0 ± 0.2 MBq of [^18F]F-PSMA-617-NODA ([^18F]1) and 3.8 ± 0.1 MBq of [^18F]F-PSMA-617-RESCA ([^18F]2), respectively.
# Total body PET/CT acquisitions were performed using PET/CT tomographs dedicated to small animals, X-ß-CUBE (Molecubes, Gent, Belgium) after 10, 60 and 120 min from tracer injection. Each acquisition lasted 30 min and mice were maintained anesthetized (4% isoflurane in induction and 2% in maintenance in air) during acquisition.
# Image quantification analysis was performed with PMOD 4.105 software (Zurich, Switzerland). Volumes of interest (VOIs) were drawn on peripheral organs (tumour, thoracic muscle, heart, liver, kidney, salivary glands, lung, small intestine, colon, bone, gall bladder) and on the healthy brain using CT images. For the glioma model, PET/CT images were co-registered to MRI images and two different VOIs were defined: (1) a control VOI covering the healthy left striatum (volume 4 mm^3) was drawn on the axial MR images, adjusted on the other imaging planes and then copied on the PET images of each mouse; (2) a second glioma-covering VOI was drawn in the tumour-affected brain hemisphere and centered on mice lesions.
# For quantification, Standardized Uptake Value (SUV) was calculated according to the formula:
# SUV = organ concentration activity [MBq/g]/(injected activity [MBq]/animal weight [g]).
# The data were expressed as standardized-uptake-values (SUVmean and SUVmax) and as tumour-to-muscle (T/M) and tumour-to-blood (T/B) ratio in PCa model and as tumour-to-contralateral (T/Cl) ratio in glioma model.
smiles,measurement,setting,value
"O=C(O)CCC(NC(=O)NC(CCCCNC(=O)C(Cc1ccc2ccccc2c1)NC(=O)C1CCC(CNC(=O)CCCN2CCN(CC(=O)O)CCN(CC(=O)O)CC2)CC1)C(=O)O)C(=O)O.[18F][Al] [[^18F]F-PSMA-617-NODA, (((S)-5-((S)-2-((1R,4S)-4-((4-(4,7-bis(carboxymethyl)-1,4,7-triazonan-1-yl)butanamido)methyl)cyclohexane-1-carboxamido)-3-(naphthalen-2-yl)propanamido)-1-carboxypentyl)carbamoyl)-L-glutamic acid [^18F] aluminium fluoride]",Bone (SUV mean),10 min p.i.,0.18 ± 0.09
same,Brain (SUV mean),10 min p.i.,0.06 ± 0.01
same,Colon (SUV mean),10 min p.i.,0.37 ± 0.08
same,Gall bladder (SUV mean),10 min p.i.,0.33 ± 0.11
same,Heart (SUV mean),10 min p.i.,0.26 ± 0.05
same,Kidney (SUV mean),10 min p.i.,13.11 ± 1.60
same,Liver (SUV mean),10 min p.i.,0.22 ± 0.01
same,Lung (SUV mean),10 min p.i.,0.20 ± 0.04
same,Muscle (SUV mean),10 min p.i.,0.14 ± 0.01
same,Salivary gland (SUV mean),10 min p.i.,0.54 ± 0.17
same,Small instestine (SUV mean),10 min p.i.,0.32 ± 0.05
same,Bone (SUV mean),60 min p.i.,0.13 ± 0.08
same,Brain (SUV mean),60 min p.i.,0.03 ± 0.01
same,Colon (SUV mean),60 min p.i.,0.27 ± 0.13
same,Gall bladder (SUV mean),60 min p.i.,0.10 ± 0.03
same,Heart (SUV mean),60 min p.i.,0.10 ± 0.03
same,Kidney (SUV mean),60 min p.i.,13.32 ± 2.23
same,Liver (SUV mean),60 min p.i.,0.11 ± 0.01
same,Lung (SUV mean),60 min p.i.,0.09 ± 0.04
same,Muscle (SUV mean),60 min p.i.,0.07 ± 0.01
same,Salivary gland (SUV mean),60 min p.i.,0.24 ± 0.09
same,Small instestine (SUV mean),60 min p.i.,0.25 ± 0.06
same,Bone (SUV mean),120 min p.i.,0.12 ± 0.09
same,Brain (SUV mean),120 min p.i.,0.02 ± 0.01
same,Colon (SUV mean),120 min p.i.,0.16 ± 0.03
same,Gall bladder (SUV mean),120 min p.i.,0.04 ± 0.01
same,Heart (SUV mean),120 min p.i.,0.04 ± 0.002
same,Kidney (SUV mean),120 min p.i.,9.30 ± 3.60
same,Liver (SUV mean),120 min p.i.,0.05 ± 0.01
same,Lung (SUV mean),120 min p.i.,0.04 ± 0.01
same,Muscle (SUV mean),120 min p.i.,0.03 ± 0.01
same,Salivary gland (SUV mean),120 min p.i.,0.08 ± 0.04
same,Small instestine (SUV mean),120 min p.i.,0.15 ± 0.06
same,tumour-to-contralateral healthy brain ratio (tumour SUV max/contralateral SUV mean),60 min p.i.,7.75 ± 3.06
same,tumour-to-contralateral healthy brain ratio (tumour SUV max/contralateral SUV mean),120 min p.i.,10.92 ± 3.56
